Experimental data: US9113629B2, “4-amino-6-(4-substituted-phenyl)-picolinates and 6-amino-2-(4-substituted-phenyl)-pyrimidine-4-carboxylates and their use as herbicides” (DOW AGROSCIENCES LLC, priority 2013, dated 2015)

Key:
[1] = tested on: HORSS: barley, including spring and winter (Hordeum vulgare); test: Post-emergent Test III, herbicidal activity in wheat and barley; type: in vivo; settings: Table 8, 21 d; for pest or weed control at 35 g/ha / pest or weed control at 70 g/ha: Hordeum vulgare, post-emergence, 504 h, post-emergent, read-out: Visual Growth Reduction (%) 21 Days After Application HORSS; for pest or weed control at 35 g/ha: 35 g ai/ha; for pest or weed control at 70 g/ha: 70 g ai/ha; for GR20 HORSS: dose for 20 percent growth reduction, probit analysis
Method: (§1) Post-emergent Test III. Seeds of the desired test plant species were planted in Sun Gro MetroMix® 306 planting mixture, which typically has a pH of 6.0 to 6.8 and an organic matter content of about 30 percent, in plastic pots with a surface area of 103.2 square centimeters (cm^2). When required to ensure good germination and healthy plants, a fungicide treatment and/or other chemical or physical treatment was applied. The plants were grown for 7-36 days (d) in a greenhouse with an approximate 14 hour (h) photoperiod which was maintained at about 18° C. during the day and 17° C. during the night. Nutrients and water were added on a regular basis and supplemental lighting was provided with overhead metal halide 1000-Watt lamps as necessary. The plants were employed for testing when they reached the second or third true leaf stage.
(§2) A weighed amount, determined by the highest rate to be tested, of each test compound was placed in a 25 mL glass vial and was dissolved in 4 mL of a 97:3 v/v mixture of acetone and DMSO to obtain concentrated stock solutions. […] The concentrated stock solutions obtained were diluted with 20 mL of an aqueous mixture containing acetone, water, isopropyl alcohol, DMSO, Agri-Dex crop oil concentrate, and X-77 surfactant in a 48:39:10:1.5:1.5:0.02 v/v ratio to obtain spray solutions containing the highest application rates. Additional application rates were obtained by serial dilution of 12 mL of the high rate solution into a solution containing 2 mL of 97:3 v/v mixture of acetone and DMSO and 10 mL of an aqueous mixture containing acetone, water, isopropyl alcohol, DMSO, Agri-Dex crop oil concentrate, and X-77 surfactant in a 48:39:10:1.5:1.5:0.02 v/v ratio to obtain ½×, ¼×, ⅛× and 1/16× rates of the high rate. Compound requirements are based upon a 12 mL application volume at a rate of 187 liters per hectare (L/ha). Formulated compounds were applied to the plant material with an overhead Mandel track sprayer equipped with 8002E nozzles calibrated to deliver 187 L/ha over an application area of 0.503 square meters at a spray height of 18 inches (43 cm) above the average plant canopy height. Control plants were sprayed in the same manner with the solvent blank.
(§3) The treated plants and control plants were placed in a greenhouse as described above and watered by subirrigation to prevent wash-off of the test compounds. After 21 d, the condition of the test plants as compared with that of the untreated plants was determined visually and scored on a scale of 0 to 100 percent where 0 corresponds to no injury and 100 corresponds to complete kill.
(§4) By applying the well-accepted probit analysis as described by J. Berkson in Journal of the American Statistical Society, 48, 565 (1953) and by D. Finney in “Probit Analysis” Cambridge University Press (1952), herbicidal injury of a specific compound at various rates can be used to calculate GR20, GR50, GR80 and GR90 values, which are defined as growth reduction factors that correspond to the effective dose of herbicide required to provide plant growth reduction (GR) of 20 percent, 50 percent, 80 percent and 90 percent, respectively. Probit analysis was applied to data collected from multiple dose rates of individual compounds utilizing the procedures explained in the following examples. The analysis of those dose rates is captured in the following tables.

[2] = tested on: TRZSS: wheat, including spring and winter (Triticum aestivum); test: as above; type: in vivo; settings: Table 8, 21 d; for GR20 TRZSS: dose for 20 percent growth reduction, probit analysis; for pest or weed control at 35 g/ha / pest or weed control at 70 g/ha: Triticum aestivum, post-emergence, 504 h, post-emergent, read-out: Visual Growth Reduction (%) 21 Days After Application TRZSS; for pest or weed control at 35 g/ha: 35 g ai/ha; for pest or weed control at 70 g/ha: 70 g ai/ha
Method: as §1, §2, §3, §4

[3] = tested on: KCHSC: kochia (Kochia scoparia); test: as above; type: in vivo; settings: Table 8, 21 d; for pest or weed control at 35 g/ha / pest or weed control at 70 g/ha: Bassia scoparia, post-emergence, 504 h, post-emergent, read-out: Visual Growth Reduction (%) 21 Days After Application KCHSC; for pest or weed control at 35 g/ha: 35 g ai/ha; for pest or weed control at 70 g/ha: 70 g ai/ha; for GR80 KCHSC: dose for 80 percent growth reduction
Method: as §1, §2, §3, §4

[4] = tested on: MATSS: scented mayweed (Matricaria chamomilla), pineappleweed (Matricaria matricarioides); test: as above; type: in vivo; settings: Table 8, 21 d; for pest or weed control at 35 g/ha / pest or weed control at 70 g/ha: Matricaria chamomilla, post-emergence, 504 h, post-emergent, read-out: Visual Growth Reduction (%) 21 Days After Application MATSS; for pest or weed control at 35 g/ha: 35 g ai/ha; for pest or weed control at 70 g/ha: 70 g ai/ha; for GR50 MATSS: dose for 50 percent growth reduction; for GR50 MATSS / GR80 MATSS: probit analysis; for GR80 MATSS: dose for 80 percent growth reduction
Method: as §1, §2, §3, §4

SMILES: COC(=O)c1nc(-c2cc(F)c(Br)cc2F)nc(N)c1OC [Compound 2]
- melting point: 186 to 187 °C

SMILES: Nc1cc(-c2cc(F)c(Br)cc2F)nc(C(=O)O)c1Cl [Compound 3]
- melting point: 172 to 174 °C
- pest or weed control at 35 g/ha [1]: 85 to 94%
- pest or weed control at 70 g/ha [1]: 95 to 100%
- GR20 HORSS [1]: 1 g ai/ha
- GR20 TRZSS [2]: 1 g ai/ha
- pest or weed control at 35 g/ha [2]: 85 to 94%
- pest or weed control at 70 g/ha [2]: 85 to 94%
- pest or weed control at 35 g/ha [3]: 95 to 100%
- pest or weed control at 70 g/ha [3]: 95 to 100%
- GR50 KCHSC ([3]; dose for 50 percent growth reduction, probit analysis): 2 g ai/ha
- GR80 KCHSC ([3]; probit analysis): 8 g ai/ha
- pest or weed control at 35 g/ha [4]: 95 to 100%
- pest or weed control at 70 g/ha [4]: 95 to 100%
- GR50 MATSS [4]: 4 g ai/ha
- GR80 MATSS [4]: 11 g ai/ha

SMILES: COc1c(N)nc(-c2cc(F)c(Br)cc2F)nc1C(=O)O [Compound 11]
- melting point: 132 to 133 °C

SMILES: C=Cc1c(C(=O)OC)nc(-c2ccc(C(F)(F)F)c(F)c2)c(F)c1N [Compound 12]
- melting point: 77 to 78 °C

SMILES: COC(=O)c1nc(-c2ccc(OC(F)F)cc2)cc(N)c1Cl [Compound 23]
- melting point: 166.4 to 169 °C

SMILES: C#Cc1ccc(-c2nc(C(=O)OC)c(Cl)c(N)c2Cl)cc1 [Compound 34]
- melting point: 164.2 to 166.8 °C

SMILES: C=Cc1c(C(=O)OC)nc(-c2ccc(C(F)(F)F)c(F)c2F)c(F)c1N [Compound 53, methyl 4-amino-6-(2,3-difluoro-4-(trifluoromethyl)phenyl)-5-fluoro-3-vinylpicolinate]
- melting point: 118 to 120 °C

SMILES: COC(=O)c1nc(-c2cc(F)c(I)cc2F)cc(N)c1Cl [Compound 56]
- melting point: 142 to 144 °C

SMILES: C=Cc1c(C(=O)OC)nc(-c2ccc(Br)cc2)c(F)c1N [Compound 57, methyl 4-amino-6-(4-bromophenyl)-5-fluoro-3-vinylpicolinate]
- melting point: 93 to 94 °C

SMILES: COC(=O)c1nc(-c2ccc(I)c(F)c2)cc(N)c1Cl [Compound 66, methyl 4-amino-3-chloro-6-(3-fluoro-4-iodophenyl)picolinate]
- melting point: 141 to 143 °C

SMILES: Cc1c(-c2ccc(Br)cc2)nc(C(=O)O)c(Cl)c1N [Compound 78, 4-Amino-6-(4-bromophenyl)-3-chloro-5-methylpicolinic acid]
- melting point: 185.5 to 187 °C

SMILES: COC(=O)c1nc(-c2ccc(C#N)cc2)c(C)c(N)c1Cl [Compound 83, Methyl 4-amino-3-chloro-6-(4-cyanophenyl)-5-methylpicolinate]
- melting point: 145 to 148 °C

SMILES: COC(=O)c1nc(-c2ccc(Br)cc2F)cc(N)c1Cl [Compound 93]
- melting point: 98.9 to 101.6 °C

SMILES: Cc1c(-c2ccc(OC(F)F)cc2)nc(C(=O)O)c(Cl)c1N [Compound 94, 4-Amino-3-chloro-6-(4-(difluoromethoxy)phenyl)-5-methylpicolinic acid]
- melting point: 158.5 to 159.5 °C

SMILES: COC(=O)c1nc(-c2cc(F)c(I)cc2F)c(Br)c(N)c1Cl [Compound 100]
- melting point: 145 to 147 °C

SMILES: COC(=O)c1nc(-c2cc(F)c(I)cc2F)nc(N)c1OC [Compound 101]
- melting point: 193 to 194 °C

SMILES: COC(=O)c1nc(-c2ccc(Br)c(F)c2)c(C)c(N)c1Cl [Compound 112, Methyl 4-amino-6-(4-bromo-3-fluorophenyl)-3-chloro-5-methylpicolinate]
- melting point: 134 to 137 °C

SMILES: Cc1c(-c2ccc(I)cc2)nc(C(=O)O)c(Cl)c1N [Compound 116, 4-Amino-3-chloro-6-(4-iodophenyl)-5-methylpicolinic acid]
- melting point: 179.5 to 181 °C

SMILES: COc1c(N)nc(-c2cc(F)c(I)cc2F)nc1C(=O)O [Compound 119]
- melting point: 131 to 132 °C

SMILES: C#Cc1ccc(-c2cc(N)c(Cl)c(C(=O)OC)n2)cc1 [Compound 126]
- melting point: 158.9 to 161.2 °C

SMILES: COC(=O)c1nc(-c2cc(F)c(Br)cc2F)cc(N)c1Cl [Compound 127, methyl 4-amino-6-(4-bromo-2,5-difluorophenyl)-3-chloropicolinate]
- melting point: 174 to 176 °C

SMILES: Nc1cc(-c2cc(F)c(I)cc2F)nc(C(=O)O)c1Cl [Compound 131]
- melting point: 173 to 175 °C

SMILES: COC(=O)c1nc(-c2ccc(I)cc2)c(C)c(N)c1Cl [Compound 136, methyl 4-amino-3-chloro-6-(4-iodophenyl)-5-methylpicolinate]
- melting point: 115 to 118 °C

SMILES: COC(=O)c1nc(-c2ccc(C#N)c(F)c2)c(C)c(N)c1Cl [Compound 155, Methyl 4-amino-3-chloro-6-(4-cyano-3-fluorophenyl)-5-methylpicolinate]
- melting point: 177 to 180 °C

SMILES: COC(=O)c1nc(-c2ccc(Br)c(F)c2)nc(N)c1OC [Compound 171, Methyl 6-amino-2-(4-bromo-3-fluorophenyl)-5-methoxypyrimidine-4-carboxylate]
- pest or weed control at 35 g/ha [1]: 45 to 59%
- pest or weed control at 70 g/ha [1]: 60 to 74%
- GR20 HORSS [1]: 20 g ai/ha
- GR20 TRZSS [2]: 11 g ai/ha
- pest or weed control at 35 g/ha [2]: 75 to 84%
- pest or weed control at 70 g/ha [2]: 85 to 94%
- pest or weed control at 35 g/ha [3]: 85 to 94%
- pest or weed control at 70 g/ha [3]: 95 to 100%
- GR80 KCHSC ([3]; probit analysis): 23 g ai/ha
- pest or weed control at 35 g/ha [4]: 30 to 44%
- pest or weed control at 70 g/ha [4]: 30 to 44%
- GR50 MATSS [4]: >140 g ai/ha
- GR80 MATSS [4]: >140 g ai/ha

SMILES: COC(=O)c1nc(-c2ccc(C(N)=O)cc2)c(F)c(N)c1Cl [Compound 192]
- melting point: 192 to 195 °C

SMILES: COC(=O)c1nc(-c2cc(F)c(F)cc2F)c(F)c(N)c1Cl [Compound 200, Methyl 4-amino-3-chloro-5-fluoro-6-(2,4,5-trifluorophenyl)picolinate]
- melting point: 143.5 to 144.5 °C
